For one assay, the target named is T1, angiotensin II receptor (Rattus norvegicus, UniProt P25095).
T1 construct: A fresh membrane preparation obtained from the liver of a rat was used; from tissue; host or cells: rat liver membranes
T1 sequence (P25095 1-359): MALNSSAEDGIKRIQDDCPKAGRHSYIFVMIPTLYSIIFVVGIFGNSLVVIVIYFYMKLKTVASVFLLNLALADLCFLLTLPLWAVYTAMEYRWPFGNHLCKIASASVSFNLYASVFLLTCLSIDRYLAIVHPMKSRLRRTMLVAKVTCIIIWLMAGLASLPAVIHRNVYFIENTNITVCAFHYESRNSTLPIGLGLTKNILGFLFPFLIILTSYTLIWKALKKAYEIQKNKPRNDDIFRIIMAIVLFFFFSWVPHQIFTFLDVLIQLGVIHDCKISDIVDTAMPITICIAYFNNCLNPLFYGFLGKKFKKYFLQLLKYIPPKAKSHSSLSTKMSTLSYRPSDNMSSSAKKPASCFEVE
Briefly: Test on the angiotensin II receptor (displacement of I^125 angiotensin II on rat liver membrane preparation). The assay is classed as binding. As to conditions: 25° C., 150 minutes, pH 7.4, read-out: IC50 (50% inhibiting concentration, displacement of specific radioactivity fixed on the receptor). On the procedure:
A fresh membrane preparation obtained from the liver of a rat was used and the tissue was ground up in a polytron in a Tris 50 mM buffer pH 7.4. The grinding was followed by 3 centrifugations at 30,000 g for 15 minutes and the deposits were taken up in between in the Tris buffer pH 7.4. The last deposits were suspended in an incubation buffer (Tris 20 mM, NaCl 135 mM, KCl 10 mM, glucose 5 mM, MgCl2 10 mM PMSF 0.3 mM, bacitracin 0.1 mM, BSA 0.2%) The aliquoted fractions of 2 ml were divided into hemolysis tubes and I^125 angiotensin II (25,000 DPM per tube) and the product to be studied were added. The product was first tested at 3×10^-5 M three times. When the tested product displaced by more than 50% the radioactivity linked specifically to the receptor, it was tested again according to a range of 7 concentrations to determine the concentration which inhibited by 50% the radioactivity linked specificaly to the receptor. In this way, the 50% inhibiting concentration was determined.
The non-specific bond was determined by addition of the product of Example 94 of European Patent No. 0,253,310, at 10^-5 M (three times). The medium was incubated at 25° C. for 150 minutes, put in a water bath at 0° C. for 5 minutes, filtered under vacuum, rinsed with Tris buffer pH 7.4 and the radioactivity was counted in the presence of scintillating Triton. The results were expressed directly as the 50% inhibiting concentration (IC50), that is as the concentration of studied product, expressed in nM, necessary to displace 50% of the specific radioactivity fixed on the receptor studied.

Assay [1] concerns angiotensin II on the isolated portal vein. Briefly: Antagonistic activity of angiotensin II on the isolated portal vein. It counts as cell-based, male Wistar rats. As to conditions: isolated rat portal vein, angiotensin II 3.10^-8 M, compound 15 minutes before stimulation, 37° C.; read-out: IC50 (concentration which produced a 50% inhibition of the response to angiotensin). On the procedure:
The portal vein of male Wistar rats weighing about 350 g (IFFA Credo France) was removed after cervical dislocation and placed rapidly in a physiological solution (see below) at ambient temperature. A ring of about 1 mm was mounted in a bath having an isolated organ containing 20 ml of the following physiological solution (composition in mM: NaCl 118.3-KCl […]-MgSO4 1.2-KH2 PO4 1.2-NaHCO3 25-glucose 11.1-CaCl2 2.5). The medium was maintained at 37° C. and oxygenated with an O2 (95%), CO2 (5%) mixture. The initial pressure imposed was 1 g, the rings were left at rest for 60 to 90 minutes. To avoid spontaneous contractions, verapamil was added to the incubation bath (1.10^-6 M).
At the end of the rest period, angiotensin II (Ciba hypertensin) 3.10^-8 M was added to the incubation bath and left in contact with the preparation for 1 minute. This operation was repeated every 30 minutes with the tissue being washed 3 or 4 times between two stimulations by angiotensin. The compound to be studied was introduced into the bath 15 minutes before a new stimulation by angiotensin. From increasing concentrations of the molecule being applied, an IC50 (concentration which produced a 50% inhibition of the response to angiotensin) can be calculated, this being expressed in nanomoles.

Structures are written as SMILES.

As to `CCCCc1nc2cscc2n1Cc1ccc(-c2ccccc2C(=O)O)cc1` [Example 34, 4'-((2-butyl-1H-thieno-(3,4-d)-imidazol-1-yl)-methyl)-(1,1'-biphenyl)-2-carboxylic acid], at angiotensin II receptor, the IC50 turned out to be 789 nM.

As to `CCCCc1nc2cccnc2n1Cc1ccc(C(=O)O)cc1` [Example 25], the IC50 in assay [1] was 830 nM.

In the case of `CCCCc1nc2ccccc2n1Cc1ccc(C(=O)O)cc1` [Example 5, 4-((2-butyl-1H-benzimidazol-1-yl)-methyl) benzoic acid], the IC50 came to 3600 nM in assay [1] and 1440 nM at angiotensin II receptor.

Turning to `CCCCc1nc2ccc(C(=O)O)cc2n1Cc1ccc(C(=O)O)cc1` [Example 2, 2-Butyl-1-((4-carboxyphenyl)-methyl)-1H-benzimidazol-6-carboxylic acid], the IC50 in assay [1] was 3400 nM; on angiotensin II receptor, 2350 nM.

Consider `CCCCc1nc2ncccc2n1Cc1ccc(-c2ccccc2C(=O)O)cc1` [Example 27, 4'-((2-butyl-1H-imidazo-(4,5-b)-pyridin-1-yl)-methyl)-(1,1'-biphenyl)-2-carboxylic acid], for which, at angiotensin II receptor, the IC50 is 89 nM.

On to `CCCCc1nc2cc(C)c(C)cc2n1Cc1ccc(C(=O)O)cc1` [Example 15, 4-((2-butyl-5,6-dimethyl-1H-benzimidazol-1-yl)-methyl) benzoic acid], for which the IC50 on angiotensin II receptor was 3610 nM.

With `CCCCc1nc2ccncc2n1Cc1ccc(C(=O)O)cc1` [Example 20, 4-((2-butyl-3H-imidazo(4,5-c)pyridin-3-yl)-methyl) benzoic acid], the IC50 on angiotensin II receptor was determined as 2720 nM.

Turning to `CCCCc1nc2cc3ccccc3cc2n1Cc1ccc(C(=O)O)cc1` [Example 10, 4-((2-butyl-1H-naphth(2,3-d)imidazol-1-yl)-methyl) benzoic acid], the IC50 was found to be 3280 nM in assay [1] and 2270 nM at angiotensin II receptor.

In the case of `CCCCc1nc2ccccc2n1Cc1ccc(C(=O)Nc2cccc3[nH]ccc23)cc1` [Example 6, 4-((2-butyl-1H-benzimidazol-1-yl)-methyl)-N-(1H-indol-4-yl) benzamide], the IC50 at angiotensin II receptor was determined as 3460 nM.
